Experimental data reported in patent US20210270855A1, “PIP2 AS A MARKER FOR HDL FUNCTION AND CARDIOVASCULAR DISEASE RISK” (The Cleveland Clinic Foundation, priority 2016, published 2021).

Tests used:
[1] = tested on: ABCA1 induced RAW264.7 cells; experiment: Cholesterol efflux to apoA1 from ABCA1-induced RAW264.7 cells; format: cell-based, mouse; conditions: for ABCA1-dependent cholesterol efflux to apoA1: RAW264.7, 1 μM inhibitor, apoA1 chase
Protocol: (§1) Cell growth and ABCA1 induction: All cell culture incubations were performed at 37° C. in humidified 5% CO2 incubator. The growth media was Dulbecco's Modified Eagle Medium (DMEM) with 10% fetal calf serum, 100 μg/mL penicillin, 100 μg/mL […]. ABCA1 was induced in […] cells by 16-24 hr incubation with 0.3 mM 8Br-cAMP^34. ABCA1 was induced in BHK cells by 16-24 hr incubation with 10 nM mifepristone^31. Inducers were included in the media during subsequent assays. ABCA1 expression was confirmed by western blot using the AC10 antibody (Santa Cruz Biotech).
Cholesterol efflux assay: On day 1, cells were plated on 24-well plates at a density of 20,000 to 400,000 cells per well. On day 2, the cells were labeled with […] [^3H]cholesterol in DMEM containing 1% FBS. On day 3, the cells when indicated were treated with or without ABCA1 inducers in serum-free DMEM. On day 4 (or day 3 for HEK293 cells and ABCA1 stably transfected cells) the cells were washed and chased for 4-6 hr in serum-free DMEM in the presence or absence of 5 μg/ml apoA1. The radioactivity in the chase media was determined after brief centrifugation to pellet any residual debris. Radioactivity in the cells was determined by extraction in hexane:isopropanol (3:2) with the solvent evaporated in a scintillation vial prior to counting. The percent cholesterol efflux was calculated as 100×(medium dpm)/(medium dpm+cell dpm).
Tmem55b knockdown: The siRNA to mouse Tmem55b (Origene, #SR408149) and scrambled control were transfected in RAW264.7 cells using siTran 1.0 (Origene). The cellular protein extracts were prepared using NP-40 lysis buffer containing protease inhibitors. The knockdown efficacy was determined by western blot using anti Tmem55b antibody (Santa Cruz).

apoA1 = apoA1 (Homo sapiens, UniProt P02647); experiment: Fluorescence anisotropy, apoA1 binding to bodipy-labeled PIP2; conditions: summary statement in the detailed description; read-out: dissociation constant of apoA1 binding to PIP2
immobilized apoA1 = biological target: T1, immobilized apoA1 (Homo sapiens, UniProt P02647); experiment: Surface plasmon resonance, lipid binding to immobilized apoA1; conditions: biotinylated apoA1 on sensor chip; PC at 1 μM
T1 construct: ApoA1 was purified form human plasma^29, and dialyzed against PBS; from tissue; host or cells: human plasma
Protocol: (§2) Surface Plasmon resonance: Binding kinetic of PIP2 with different apolipoproteins was analyzed using a Biacore3000 instrument. Either biotinylated apoA1 or biotinylated PIP2 was immobilized on a streptavidin (SA) sensor chip (GE Healthcare). The immobilized apoA1 or PIP2 was stable over the course of the experiment and baseline drift was <10 response units (RU)/h after the washing with Hepes buffered saline (FIBS) buffer. Different concentrations of apoA1 or PIP2 were injected using the KINJECT procedure at flow-rate of 10 μl/min and dissociation was monitored by injecting FIBS buffer. The injections were performed in triplicate for each ligand concentration. For comparing binding kinetics of PIP2 with apoA1, apoA2 and apoE, these proteins were immobilized by covalent coupling on a CMS sensor chip (GE Healthcare) using EDC-NHS reagents. PIP2 was injected as described above. Corrected response data were fitted with BIAevaluation software version 4.01, and Kd values were calculated.

apoA2 = biological target: T2, apoA2 (Homo sapiens, UniProt P02652); experiment: Surface plasmon resonance, PIP2 binding to immobilized apoA2
T2 construct: purchased Origene TP721104
Protocol: as §2

apoE = biological target: T3, apoE (Homo sapiens, UniProt P02649); experiment: Surface plasmon resonance, PIP2 binding to immobilized apoE
T3 construct: purchased Origene TP723016
Protocol: as §2

[2] = tested on: ABCA1 expressing RAW264.7 cells; experiment: ApoA1 cell binding by flow cytometry, RAW264.7 cells; format: cell-based, mouse; conditions: ABCA1-induced RAW264.7, apoA1 pre-incubated with PIP2 (5:1 mole ratio)
Protocol: as §1
Cell surface PS, PIP2, and apoA1 binding assays via flow cytometry: Cell surface PS levels were determined by flow cytometry after cell scraping in PBS, re-suspension in Annexin V binding buffer, and incubation with AnnexinV-Cy5 (Biovision) at room temperature for 5 minutes in the dark. Cell surface PIP2 levels were determined by flow cytometry by incubation with Alexa647 or FITC labeled anti-PIP2 antibody (Echelon) in phenol red-free, serum-free, DMEM at room temperature for 30 min. Human apoA1 was labeled with Alexa647 (Molecular Probes) on free amines using a 6:1 mole ratio of dye:apoA1. Alexa647-apoA1 binding was determined by flow cytometry after incubation with cells for 45 minutes at room temperature. […] Data was analyzed by Flowjo software and the median relative fluorescent intensities were compared.

T1 sequence (P02647 25-267 limits assumed): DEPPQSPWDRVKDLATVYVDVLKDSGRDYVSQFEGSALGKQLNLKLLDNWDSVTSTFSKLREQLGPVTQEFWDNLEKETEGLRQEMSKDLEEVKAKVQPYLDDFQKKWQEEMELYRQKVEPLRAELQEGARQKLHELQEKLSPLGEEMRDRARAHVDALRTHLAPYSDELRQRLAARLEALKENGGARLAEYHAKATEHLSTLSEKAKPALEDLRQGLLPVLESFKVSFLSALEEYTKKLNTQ
T2 sequence (P02652 19-100): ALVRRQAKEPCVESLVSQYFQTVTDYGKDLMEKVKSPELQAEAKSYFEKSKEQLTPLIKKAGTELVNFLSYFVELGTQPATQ
T3 sequence (P02649 19-317): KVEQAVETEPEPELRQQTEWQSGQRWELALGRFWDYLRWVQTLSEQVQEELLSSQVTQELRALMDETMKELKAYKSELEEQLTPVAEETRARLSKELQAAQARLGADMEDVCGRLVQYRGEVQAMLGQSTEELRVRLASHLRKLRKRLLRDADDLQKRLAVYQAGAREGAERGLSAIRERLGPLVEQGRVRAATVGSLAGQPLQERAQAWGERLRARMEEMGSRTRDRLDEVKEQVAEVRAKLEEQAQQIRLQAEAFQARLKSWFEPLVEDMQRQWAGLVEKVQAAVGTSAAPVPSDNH
apoA1, sequence (P02647 25-267 limits assumed): as the sequence (P02647 25-267 limits assumed) above

CC(=O)Nc1nc(C)c(-c2ccc(Cl)c(S(=O)(=O)NCCO)c2)s1 [PIK-93]
ABCA1-dependent cholesterol efflux to apoA1 [1]: decreased

CCCCC/C=C\C/C=C\C/C=C\C/C=C\CCCC(=O)O[C@H](COC(=O)CCCCCCCCCCCCCCCCC)COP(=O)(O)O[C@@H]1[C@H](O)[C@H](O)[C@@H](OP(=O)(O)O)[C@H](OP(=O)(O)O)[C@H]1O [PIP2, phosphatidylinositol (4,5) bis-phosphate]
Kd (apoA1): ~100 nM
binding to immobilized apoA1 (SPR) (immobilized apoA1): direct binding
direct binding to apoA2 (SPR) (apoA2): direct binding
direct binding to apoE (SPR) (apoE): direct binding
cholesterol efflux to apoA1 ([1]; ABCA1-induced RAW264.7, apoA1 5 μg/ml pre-incubated with PIP2 (PIP2:apoA1 5:1 mole ratio)): decreased
apoA1 binding [2]: decreased

phosphatidylcholine [PC]
binding to immobilized apoA1 (SPR) (immobilized apoA1): no binding

CC(C)(C)C(=O)Nc1ccc2c(c1)C(=O)C(=O)c1ccccc1-2 [SF1670]
ABCA1-dependent cholesterol efflux to apoA1 [1]: decreased
